Results on five molecules are retold here after US4039535A, “7-[α-(GUANYL-1-UREIDO)PHENYLACETAMIDO]-3-SUBSTITUTED CEPHALOSPORIN ANTIBIOTICS” (Eli Lilly and Company, priority 1976, dated 1977).

≈ marks a conversion by molar mass, not a printed value. Read-outs that look alike come from different tables or passages of the source.

Holding throughout (assay type): cell-based
For assay [1], the system named is penicillin resistant staphylococcus V84. Briefly: MIC by Gradient Plate Method vs penicillin resistant staphylococcus clinical isolates (Table II). As to conditions: read-out: Minimum Inhibitory Concentration. As for the experimental part: (§1) In the tables the minimum inhibitory concentrations (MIC) of the listed compound verses the indicated gram-positive and gram-negative microorganisms is presented.
(§2) The MIC values were determined by the Gradient Plate Method which is essentially the method described by Bryson and Szybalski, Science, 116, 45-46 (1952).

Assay [2] concerns penicillin resistant staphylococcus V41. The description is as above. As to conditions: read-out: Minimum Inhibitory Concentration. The procedure:
as §1, §2

Assay [3] deals with penicillin resistant staphylococcus V32. The description is as above. As to conditions: read-out: Minimum Inhibitory Concentration. As for the experimental part: as §1, §2
Assay [4] concerns penicillin resistant staphylococcus X1.1. Described as above. As to conditions: read-out: Minimum Inhibitory Concentration. The procedure:
as §1, §2

Assay [5] has as its system Klebsiella pneumoniae. Briefly: MIC by Gradient Plate Method, in vitro antibiotic activity vs gram-negative microorganisms (Table I). As to conditions: read-out: Minimum Inhibitory Conc. The procedure:
as §1, §2

In assay [6] the test system is Serratia marcescens. Described as above. As to conditions: read-out: Minimum Inhibitory Conc. As for the experimental part: as §1, §2
Assay [7] deals with Escherichia coli. The description is as above. As to conditions: read-out: Minimum Inhibitory Conc. The procedure: as §1, §2
For assay [8], the system named is Pseudomonas aeruginosa. Described as above. As to conditions: read-out: Minimum Inhibitory Conc. As for the experimental part:
as §1, §2

Assay [9] relates to Aerobacter aerogenes. The assay is described as above. As to conditions: Klebsiella aerogenes, read-out: Minimum Inhibitory Conc. The procedure: as §1, §2
The test system of assay [10] is Shigella sp. The assay is described as above. As to conditions: read-out: Minimum Inhibitory Conc. As for the experimental part: as §1, §2
Assay [11] concerns Salmonella heidelberg. The description is as above. As to conditions: Salmonella enterica, read-out: Minimum Inhibitory Conc. As for the experimental part:
as §1, §2

The test system of assay [12] is gram-negative microorganisms. The assay is described as follows: Antibiotic activity against gram-negative microorganisms, summary of Table I. As to conditions: in words; MIC values in Table I; vs compound E. As for the experimental part: as §1, §2

As to `Cc1nnc(SCC2=C(C(=O)O)N3C(=O)C(NC(=O)[C@H](NC(=O)NC(=N)N)c4ccc(O)cc4)C3SC2)s1` (stereo partly drawn) [D, 7-[d-α-(3-guanyl-1-ureido)-4-hydroxyphenylacetamido]-3-(5-methyl-1,3,4-thiadiazol-2-yl-thiomethyl)-3-cephem-4-carboxylic acid], the MIC came to 1 µg/mL (≈ 1.73 µM) in [1] (N.S. = in the absence of serum); 2 µg/mL in assay [1] (S = in the presence of serum); 1 µg/mL (≈ 1.73 µM) in assay [2] (N.S. = in the absence of serum); 6 µg/mL in assay [2] (S = in the presence of serum); 1 µg/mL (≈ 1.73 µM) in [3] (N.S. = in the absence of serum); 12 µg/mL in [3] (S = in the presence of serum). The MIC in [4] (N.S. = in the absence of serum) worked out at 1 µg/mL (≈ 1.73 µM); in assay [4] (S = in the presence of serum) it was 1 µg/mL; in assay [5] it was 1 µg/mL (≈ 1.73 µM); in [6], 50 µg/mL (≈ 86.4 µM); in assay [7], 6 µg/mL (≈ 10.4 µM); in [8], 50 µg/mL (≈ 86.4 µM). Also, the results for the MIC in assay [9], in assay [10] and in [11] were 1 µg/mL (≈ 1.73 µM), 4.5 µg/mL (≈ 7.78 µM) and 1 µg/mL (≈ 1.73 µM), respectively. For the same molecule, in assay [12], the “activity against gram-negative microorganisms compared with known compound E” value (shortened to “activity … compared with known compound E”) was “significantly greater activity against gram-negative microorganisms than the known compound, E”.
For the molecule `Cc1nnc(SCC2=C(C(=O)O)N3C(=O)C(NC(=O)[C@H](NC(=O)NC(=N)N)c4ccccc4)C3SC2)s1` (stereo partly drawn) [B, 7-[d-α-(3-guanyl-1-ureido)phenylacetamido]-3-(5-methyl-1,3,4-thiadiazol-2-yl-thiomethyl)-3-cephem-4-carboxylid acid], the MIC in assay [1] (N.S. = in the absence of serum) was 0.6 µg/mL (≈ 1.07 µM); in assay [1] (S = in the presence of serum) it was 10 µg/mL; in assay [2] (N.S. = in the absence of serum) it was 1 µg/mL (≈ 1.78 µM); in assay [2] (S = in the presence of serum), more than 20 µg/mL; in assay [3] (N.S. = in the absence of serum), 1 µg/mL (≈ 1.78 µM); in [3] (S = in the presence of serum), more than 20 µg/mL. The MIC in [4] (N.S. = in the absence of serum) was found to be 0.6 µg/mL (≈ 1.07 µM); in [4] (S = in the presence of serum) it was 10 µg/mL; in assay [5] it was 1 µg/mL (≈ 1.78 µM); in assay [6], 14.3 µg/mL (≈ 25.4 µM); in [7], 8.7 µg/mL (≈ 15.5 µM); in assay [8] it was 104 µg/mL (≈ 185 µM). The MIC in assay [9] amounted to 1 µg/mL (≈ 1.78 µM); in assay [10], 5.5 µg/mL (≈ 9.78 µM); in assay [11], 6 µg/mL (≈ 10.7 µM). The “activity … compared with known compound E” value in assay [12] is on record as “significantly greater activity against gram-negative microorganisms than the known compound, E”.
As to `CC(=O)OCC1=C(C(=O)O)N2C(=O)C(NC(=O)[C@H](NC(=O)NC(=N)N)c3ccccc3)C2SC1` (stereo partly drawn) [E, 7-[d-α-(3-guanyl-1-ureido)phenylacetamido]-3-acetoxymethyl-3-cephem-4-carboxylic acid, reference compound], the MIC in assay [1] (N.S. = in the absence of serum) stood at 0.6 µg/mL (≈ 1.22 µM); in assay [1] (S = in the presence of serum), 1 µg/mL; in assay [2] (N.S. = in the absence of serum) it was 0.5 µg/mL (≈ 1.02 µM); in [2] (S = in the presence of serum), 1 µg/mL; in [3] (N.S. = in the absence of serum) it was 0.7 µg/mL (≈ 1.43 µM); in assay [3] (S = in the presence of serum) it was 1 µg/mL. The MIC was found to be 0.6 µg/mL (≈ 1.22 µM) in assay [4] (N.S. = in the absence of serum); 1 µg/mL in [4] (S = in the presence of serum); 21.5 µg/mL (≈ 43.8 µM) in [5]; 31.5 µg/mL (≈ 64.2 µM) in assay [6]; 13.8 µg/mL (≈ 28.1 µM) in assay [7]; 100 µg/mL (≈ 204 µM) in [8]. Also, the values for the MIC in [9], in [10] and in [11] were 4.5 µg/mL (≈ 9.17 µM), 16.3 µg/mL (≈ 33.2 µM) and 6 µg/mL (≈ 12.2 µM), respectively.
In the case of `Cn1nnnc1SCC1=C(C(=O)O)N2C(=O)C(NC(=O)[C@H](NC(=O)NC(=N)N)c3ccccc3)C2SC1` (stereo partly drawn) [A, 7-[D-α-(3-Guanyl-1-ureido)phenylacetamido]-3-(1-methyl-1H-tetrazol-5yl-thiomethyl)-3-cephem-4-carboxylic acid], the MIC is 0.6 µg/mL (≈ 1.1 µM) in assay [1] (N.S. = in the absence of serum); 1 µg/mL in assay [1] (S = in the presence of serum); 0.7 µg/mL (≈ 1.28 µM) in assay [2] (N.S. = in the absence of serum); 1 µg/mL in [2] (S = in the presence of serum); 1 µg/mL (≈ 1.83 µM) in assay [3] (N.S. = in the absence of serum); 9 µg/mL in assay [3] (S = in the presence of serum). Also, the MIC in assay [4] (N.S. = in the absence of serum) was 0.5 µg/mL (≈ 0.915 µM); in assay [4] (S = in the presence of serum), less than 0.1 µg/mL; in assay [5], 1 µg/mL (≈ 1.83 µM); in assay [6], 7 µg/mL (≈ 12.8 µM); in [7], 2 µg/mL (≈ 3.66 µM); in [8], 53.5 µg/mL (≈ 97.9 µM). Moreover, the MIC in [9] amounted to 0.7 µg/mL (≈ 1.28 µM); in [10], 2 µg/mL (≈ 3.66 µM); in assay [11], 0.8 µg/mL (≈ 1.46 µM). Besides, the “activity … compared with known compound E” value in assay [12] was “significantly greater activity against gram-negative microorganisms than the known compound, E”.
Take `Cn1nnnc1SCC1=C(C(=O)O)N2C(=O)C(NC(=O)[C@H](NC(=O)NC(=N)N)c3ccc(O)cc3)C2SC1` (stereo partly drawn) [C, 7-[d-α-(3-guanyl-1-ureido)-4-hydroxyphenylacetamido]-3-(1-methyl-1H-tetrazol-5-yl-thiomethyl)-3-cephem-4-carboxylic acid]: the MIC in assay [1] (N.S. = in the absence of serum) was less than 0.1 µg/mL; in assay [1] (S = in the presence of serum), 1 µg/mL; in [2] (N.S. = in the absence of serum) it was less than 0.1 µg/mL; in assay [2] (S = in the presence of serum), 10 µg/mL; in [3] (N.S. = in the absence of serum), 1 µg/mL (≈ 1.78 µM); in assay [3] (S = in the presence of serum), 10 µg/mL. Also, the MIC in assay [4] (N.S. = in the absence of serum) is less than 0.1 µg/mL; in assay [4] (S = in the presence of serum) it was 0.6 µg/mL; in [5] it was 1.2 µg/mL (≈ 2.13 µM); in [6], 21 µg/mL (≈ 37.3 µM); in [7], 0.7 µg/mL (≈ 1.24 µM); in assay [8] it was 23 µg/mL (≈ 40.9 µM). Further, the MIC in [9] was 0.1 µg/mL (≈ 0.178 µM); in assay [10] it was 0.7 µg/mL (≈ 1.24 µM); in assay [11] it was 0.2 µg/mL (≈ 0.355 µM). Moreover, the “activity … compared with known compound E” value in [12] is on record as “significantly greater activity against gram-negative microorganisms than the known compound, E”.
